Laboratory results: PMC9663597, “Anti-infective therapy using species-specific activators of Staphylococcus aureus ClpP” (Nature Communications, 2022)
Converted amounts (≈) assume the structure as drawn. Where two headings read alike, the source gives them in different places.

Assays:
[1] = test system: T1, Staphylococcus aureus XJ049; test: microbe, parasite or virus in culture; design: species or system Staphylococcus aureus strains; Minimum inhibitory concentration, growth inhibition of S. aureus strains in culture; conditions: XJ049, read-out: MIC
T1 construct: XJ049
Source text: (§1) Given our species-specific activators suppress the growth of S. aureus 8325-4, we then tested the antistaphylococcal spectrum of (R)- and (S)-ZG197 against a panel of S. aureus strains, including the Newman strain and multidrug-resistant MRSA strains. The USA300, NRS-1, NRS-70, NRS-100, NRS-108, and NRS-271 MRSA strains were collected from the Network on Antimicrobial Resistance in S. aureus (Supplementary Table 2). […] We also tested the antibacterial effects of our activators on five hospital-acquired, multidrug-resistant MRSA isolates in China, including XJ009, XJ036, XJ049, XJ051, and XJ052 (Supplementary Table 2). […] We next performed a minimum inhibitory concentration (MIC) assay in [compound left out] culture to determine the antibacterial effects of our activators on the S. aureus 8325-4 strain. […] To dissect whether our activators’ antistaphylococcal activity depends on ClpP in S. aureus, we determined the inhibitory effects of our activators on the ΔclpP mutant and the complemented clpP or clpPI91W mutant strains, respectively (Fig. 5a). The selective (R)- and (S)-ZG197 activators or the global activators ICG-001 and ONC212 minimally suppress the growth of ΔclpP mutant strain, and all the MICs are observed to be over 256 μg/mL. The antibacterial phenotype can be rescued in the complemented clpP strain in the presence of ClpP activators.

[2] = test system: T2, Staphylococcus aureus XJ009; test: microbe, parasite or virus in culture; design: species or system Staphylococcus aureus strains; Minimum inhibitory concentration, growth inhibition of S. aureus strains in culture; conditions: XJ009, read-out: MIC
T2 construct: XJ009
Source text: as §1

[3] = test system: T3, Staphylococcus aureus NRS108; test: microbe, parasite or virus in culture; design: species or system Staphylococcus aureus strains; Minimum inhibitory concentration, growth inhibition of S. aureus strains in culture; conditions: NRS108, read-out: MIC
T3 construct: NRS108
Source text: as §1

[4] = test system: T4, Staphylococcus aureus USA300 LAC; test: microbe, parasite or virus in culture; design: species or system Staphylococcus aureus strains; Minimum inhibitory concentration, growth inhibition of S. aureus strains in culture; conditions: USA300, read-out: MIC
T4 construct: USA300 LAC
Source text: as §1

[5] = test system: T5, Staphylococcus aureus NRS70; test: microbe, parasite or virus in culture; design: species or system Staphylococcus aureus strains; Minimum inhibitory concentration, growth inhibition of S. aureus strains in culture; conditions: NRS70, read-out: MIC
T5 construct: NRS70
Source text: as §1

[6] = test system: T6, Staphylococcus aureus NRS1; test: microbe, parasite or virus in culture; design: species or system Staphylococcus aureus strains; Minimum inhibitory concentration, growth inhibition of S. aureus strains in culture; conditions: NRS1, read-out: MIC
T6 construct: NRS1
Source text: as §1

[7] = test system: T7, Staphylococcus aureus XJ051; test: microbe, parasite or virus in culture; design: species or system Staphylococcus aureus strains; Minimum inhibitory concentration, growth inhibition of S. aureus strains in culture; conditions: XJ051, read-out: MIC
T7 construct: XJ051
Source text: as §1

[8] = test system: T8, Staphylococcus aureus XJ052; test: microbe, parasite or virus in culture; design: species or system Staphylococcus aureus strains; Minimum inhibitory concentration, growth inhibition of S. aureus strains in culture; conditions: XJ052, read-out: MIC
T8 construct: XJ052
Source text: as §1

[9] = test system: T9, Staphylococcus aureus Newman; test: microbe, parasite or virus in culture; design: species or system Staphylococcus aureus strains; Minimum inhibitory concentration, growth inhibition of S. aureus strains in culture; conditions: NEWMAN, read-out: MIC
T9 construct: Newman
Source text: as §1

[10] = test system: T10, Staphylococcus aureus XJ036; test: microbe, parasite or virus in culture; design: species or system Staphylococcus aureus strains; Minimum inhibitory concentration, growth inhibition of S. aureus strains in culture; conditions: XJ036, read-out: MIC
T10 construct: XJ036
Source text: as §1

[11] = test system: T11, Staphylococcus aureus NRS100; test: microbe, parasite or virus in culture; design: species or system Staphylococcus aureus strains; Minimum inhibitory concentration, growth inhibition of S. aureus strains in culture; conditions: NRS100, read-out: MIC
T11 construct: NRS100
Source text: as §1

[12] = test system: T12, Staphylococcus aureus NRS271; test: microbe, parasite or virus in culture; design: species or system Staphylococcus aureus strains; Minimum inhibitory concentration, growth inhibition of S. aureus strains in culture; conditions: NRS271, read-out: MIC
T12 construct: NRS271
Source text: as §1

[13] = biological target: T13, SaClpP (Staphylococcus aureus ClpP) (Staphylococcus aureus, UniProt Q2G036); test: ITC; also BLI (Kd […]), DSF, CETSA, X-ray crystal structure, alpha-casein hydrolysis EC50 […]; format: binding
SaClpPI91W = biological target: T14, SaClpPI91W (Staphylococcus aureus, UniProt Q2G036, I91W); test: ITC; also DSF, CETSA, alpha-casein hydrolysis; format: binding
T14 construct: gene clpP

[14] = biological target: T13, SaClpP (Staphylococcus aureus ClpP); test: ITC; also BLI (Kd […]), DSF, CETSA, X-ray crystal structure; format: binding
[15] = test system: T1, Staphylococcus aureus XJ049; test: microbe, parasite or virus in culture; design: species or system Staphylococcus aureus strains; Minimum inhibitory concentration, growth inhibition of S. aureus strains in culture; conditions: XJ049
Source text: as §1, with “liquid” for “[compound left out]”

[16] = test system: T7, Staphylococcus aureus XJ051; test: microbe, parasite or virus in culture; design: species or system Staphylococcus aureus strains; Minimum inhibitory concentration, growth inhibition of S. aureus strains in culture; conditions: XJ051
Source text: as §1, with “liquid” for “[compound left out]”

[17] = test system: T8, Staphylococcus aureus XJ052; test: microbe, parasite or virus in culture; design: species or system Staphylococcus aureus strains; Minimum inhibitory concentration, growth inhibition of S. aureus strains in culture; conditions: XJ052
Source text: as §1, with “liquid” for “[compound left out]”

[18] = test system: T10, Staphylococcus aureus XJ036; test: microbe, parasite or virus in culture; design: species or system Staphylococcus aureus strains; Minimum inhibitory concentration, growth inhibition of S. aureus strains in culture; conditions: XJ036
Source text: as §1, with “liquid” for “[compound left out]”

[19] = biological target: T15, Staphylococcus aureus ClpP (Staphylococcus aureus), Q2G036; test: crystal structure; SaClpP (10 mg/mL) with 5-fold ZG180, sitting drop vapor diffusion at 16 °C, 30% 2-methyl-2,4-pentanediol, 0.1 M sodium acetate/HCl pH 8.0, 20 mM calcium chloride; 1.90 Å; conditions: remark: other sources report otherwise
T15 chain: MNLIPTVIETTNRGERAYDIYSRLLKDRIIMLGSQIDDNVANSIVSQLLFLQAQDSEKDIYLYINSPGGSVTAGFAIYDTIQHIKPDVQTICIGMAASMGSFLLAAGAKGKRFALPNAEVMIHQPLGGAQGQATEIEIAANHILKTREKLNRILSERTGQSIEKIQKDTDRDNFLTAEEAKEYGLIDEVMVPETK

Molecule	MIC [1] [µg/mL]	MIC [2] [µg/mL]	MIC [3] [µg/mL]	MIC [4] [µg/mL]	MIC [5] [µg/mL]	MIC [6] [µg/mL]	MIC [7] [µg/mL]	MIC [8] [µg/mL]	MIC [9] [µg/mL]	MIC [10] [µg/mL]	MIC [11] [µg/mL]	MIC [12] [µg/mL]	further results
CC[C@H](C)[C@H]1C(=O)N([C@H](C)c2cccc3ccccc23)C[C@@H]2N(C(=O)NCCCC(F)(F)F)CCC(=O)N12 [(R)-ZG197]	0.5 (≈ 0.939 µM)	1 (≈ 1.88 µM)	0.5 (≈ 0.939 µM)	0.5 (≈ 0.939 µM)	0.5 (≈ 0.939 µM)	2 (≈ 3.76 µM)	0.5 (≈ 0.939 µM)	1 (≈ 1.88 µM)	0.5 (≈ 0.939 µM)	1 (≈ 1.88 µM)	0.5 (≈ 0.939 µM)	2 (≈ 3.76 µM)	Kd [13]: 2500 ± 200 nM; Kd (SaClpPI91W): 930 ± 200 nM
CC[C@@H](C)[C@H]1C(=O)N([C@@H](C)c2cccc3ccccc23)C[C@@H]2N(C(=O)NCCCC(F)(F)F)CCC(=O)N12 [(S)-ZG197]	8 (≈ 15 µM)	8 (≈ 15 µM)	4 (≈ 7.51 µM)	8 (≈ 15 µM)	4 (≈ 7.51 µM)	8 (≈ 15 µM)	4 (≈ 7.51 µM)	4 (≈ 7.51 µM)	2 (≈ 3.76 µM)	4 (≈ 7.51 µM)	2 (≈ 3.76 µM)	4 (≈ 7.51 µM)	Kd [14]: 5000 ± 300 nM
CCC[C@@H]1C[C@@H](C(=O)N[C@@H]([C@H]2O[C@H](SC)[C@H](O)[C@@H](O)[C@H]2O)[C@H](C)Cl)N(C)C1 [Clindamycin]	–	–	–	–	–	–	0.06 (≈ 0.141 µM)	–	–	0.13 (≈ 0.306 µM)	–	–	–
CC[C@H]1OC(=O)[C@H](C)[C@@H](O[C@H]2C[C@@](C)(OC)[C@@H](O)[C@H](C)O2)[C@H](C)[C@@H](O[C@@H]2O[C@H](C)C[C@H](N(C)C)[C@H]2O)[C@](C)(O)C[C@@H](C)C(=O)[C@H](C)[C@@H](O)[C@]1(C)O [Erythromycin]	–	–	–	16 (≈ 21.8 µM)	–	–	32 (≈ 43.6 µM)	–	–	0.25 (≈ 0.341 µM)	0.06 (≈ 0.0818 µM)	0.5 (≈ 0.681 µM)	–
CNC(C)[C@@H]1CC[C@@H](N)[C@@H](O[C@H]2[C@H](O)[C@@H](O[C@H]3OC[C@](C)(O)[C@H](NC)[C@H]3O)[C@H](N)C[C@@H]2N)O1 (stereo partly drawn) [Gentamicin]	–	–	–	–	–	–	–	–	–	–	–	–	MIC [15]: 32 µg/mL (≈ 67 µM); MIC [16]: 64 µg/mL (≈ 134 µM); MIC [17]: 64 µg/mL (≈ 134 µM); MIC [18]: 0.25 µg/mL (≈ 0.523 µM)
CCn1cc(C(=O)O)c(=O)c2cc(F)c(N3CCNCC3)cc21 [Norfloxacin]	–	0.5 (≈ 1.57 µM)	–	–	–	–	64 (≈ 200 µM)	–	–	64 (≈ 200 µM)	–	–	–
O=C1C2=C(CCN(Cc3ccccc3)C2)N2CCN=C2N1Cc1ccc(C(F)(F)F)cc1 [ONC212]	0.25 (≈ 0.568 µM)	0.5 (≈ 1.14 µM)	0.5 (≈ 1.14 µM)	0.5 (≈ 1.14 µM)	0.25 (≈ 0.568 µM)	1 (≈ 2.27 µM)	1 (≈ 2.27 µM)	0.25 (≈ 0.568 µM)	0.25 (≈ 0.568 µM)	0.25 (≈ 0.568 µM)	0.5 (≈ 1.14 µM)	0.5 (≈ 1.14 µM)	–
Cc1onc(-c2ccccc2)c1C(=O)N[C@@H]1C(=O)N2[C@@H]1SC(C)(C)[C@@H]2C(=O)O [Oxacillin]	–	4 (≈ 9.96 µM)	0.5 (≈ 1.25 µM)	–	2 (≈ 4.98 µM)	–	–	–	0.1 (≈ 0.249 µM)	1 (≈ 2.49 µM)	0.1 (≈ 0.249 µM)	–	–
CN(C)[C@@H]1C(O)=C(C(N)=O)C(=O)[C@@]2(O)C(O)=C3C(=O)c4c(O)cccc4[C@@](C)(O)[C@H]3C[C@@H]12 [Tetracycline]	–	–	–	16 (≈ 36 µM)	0.06 (≈ 0.135 µM)	–	–	–	–	–	–	2.5 (≈ 5.63 µM)	–
Staphylococcus aureus ClpP, Q2G036 1-195 (enzyme) MNLIPTVIETTNRGERAYDIYSRLLKDRIIMLGSQIDDNVANSIVSQLLFLQAQDSEKDIYLYINSPGGSVTAGFAIYDTIQHIKPDVQTICIGMAASMGSFLLAAGAKGKRFALPNAEVMIHQPLGGAQGQATEIEIAANHILKTREKLNRILSERTGQSIEKIQKDTDRDNFLTAEEAKEYGLIDEVMVPETK	–	–	–	–	–	–	–	–	–	–	–	–	stoichiometry N [19]: 14
